This is an account of results in paper PMC12415213, “A genome-scale drug discovery pipeline uncovers therapeutic targets and a unique p97 allosteric binding site in Schistosoma mansoni” (Proceedings of the National Academy of Sciences of the …, 2025).

Experiment [1] concerns adult S. mansoni. On the set-up: method as in PMID 32973031. The settings on record: adult parasites; cited from earlier work.
Experiment [2] has as its target S. mansoni p97 (Smp_018240) (Schistosoma mansoni, UniProt G4M0P7). The format is biochemical. As to conditions: for IC50: recombinant full-length enzyme, Kinase-Glo, 100 μM to 1 nM. The method, then:
Evaluation of p97’s ATPase activity and compound potency
For manual ATP consumption assays, 1 µM p97 was incubated with 1% DMSO or inhibitor (1% DMSO final) in assay buffer [50 mM Tris (pH 7.5), 20 mM MgCl2, 1 mM EDTA, 0.5 mM tris(2-carboxyethyl)phosphine (TCEP)] for 5 minutes prior to the addition of 20 µM ATP in a 384-well plate for a total reaction volume of 10 µL, and a final concentration of 500nM enzyme and 10 µM ATP. The reaction was allowed to proceed for 50 minutes at room temperature before adding equivalent volume of Kinase-Glo Plus reagent (Promega), and a further incubation of 10 minutes in the dark. Luminescence was read using a BioTek Synergy 2 plate reader […]
1 μM, 500 nM, 100 nM, 50 nM, 10 nM, 5 nM, 1 nM, and 0 nM) in triplicate, maintaining a concentration of 1% […]
were calculated using GraphPad Prism. […]

Experiment [3] deals with K48 polyubiquitinated proteins in adult S. mansoni. The experiment in a line: Western blot of K48 polyubiquitinated proteins in lysate of drug-treated worms. The format is cell-based, Schistosoma mansoni. As to conditions: adult worm lysate after 48 h of treatment. As for the experimental part:
(§1) DMSO). All selected compounds were obtained from commercial vendors (Medchemexpress, Selleck Chemicals, Sigma-Aldrich, ApexBio, Tocris, Santa Cruz Biotechnology, and Cayman Chemical Company) (Dataset S4) with […]
the activity of the desired compounds. Roughly 5 adult worm pairs were placed in 3mL Basch medium in a 12-well culture vessel, and incubated at 37° C, 5% CO2 for the length of the experiment. […]
(§2) For drug treatment studies, 10 male adult worms (single or paired with females) were supplemented with either 0.1% DMSO or inhibitor (0.1% DMSO final). For all experiments assessing on-target effects of potential parasite […]
(§3) After 48 hr, male parasites were separated […]
(§4) further processing. Male worm samples were homogenized with a pestle in 50 µL lysis buffer containing 2X […]
(Roche, cOmplete Mini, EDTA-free Tablets) and 10 mM DTT. The lysates were then sonicated on high for 5 min (30 sec on, 30 sec off) using a Bioruptor UCD-200. Lysates were centrifuged for 5 min at 10,000 g to remove […]
debris. Total protein was measured using the Detergent Compatible Bradford Assay (Pierce). 50 µg of protein samples denatured in SDS Sample buffer (95°C for 5 min) were separated on a Bio-Rad 4-20% TGX Stain-Free gel along with Precision Plus Protein Dual Color Standards (Bio-Rad) as a marker. Proteins were then transferred to a nitrocellulose membrane (Bio-Rad). The membrane was blocked in a 1:5 solution of Li-Cor Odyssey Blocking buffer in PBST for 1 hr before being immunoblotted overnight at 4°C with 1:500 K48-linkage Specific […]
(1:10,000) (Developmental Studies Hybridoma Bank, JLA20) diluted in a 1:5 solution of Li-Cor Odyssey Blocking buffer in PBST. The membrane was washed 3x in TBST and then incubated in 1:5 Li-Cor Odyssey […]
in TBST 3x before being imaged on a LiCor Odyssey Infrared Imager. […]

Experiment [4] relates to adult S. mansoni. The experiment in a line: Dose-response of compounds on adult worms (attachment to culture substrate, EC50). It is filed as cell-based, Schistosoma mansoni. The method, then:
as §1
(§5) the activity of the desired compounds. Roughly 5 adult worm pairs were placed in 3mL Basch medium in a 12-well culture vessel, and incubated at 37° C, 5% CO2 for the length of the experiment. Compound was administered at D0, D1, and D2, media and drug refreshed every 24 hr. Worms were then allowed to remain in culture until D5, where a final assessment of worm attachment to tissue culture substate was made by light microscopy.
Observations on movement and morphology were also recorded. A negative control (0.1% DMSO) and positive control (PZQ; 10 µM in 0.1% DMSO) were included in each experiment, and each experiment was repeated in triplicate for validation. For compounds that caused complete detachment in replicate experiments, the treatment was expanded to three concentrations (10 µM, 5 µM, and 1 µM) following the same treatment schedule and controls as detailed above.
Each titration experiment was performed in triplicate according to the treatment regimen described above, using DMSO and PZQ as appropriate controls. Morphologies and motility were assessed by light microscopy, and dose-response curves were calculated using the primary readout of parasite attachment to tissue culture substrate in GraphPad Prism.
as §2, §3, §4
(Roche, cOmplete Mini, EDTA-free Tablets) and 10 mM DTT. The lysates were then sonicated on high for 5 min (30 sec on, 30 sec off) using a Bioruptor UCD-200. […]
Compounds were tested from 100 μM – 1 nM. Values were calculated using Prism.

The test system of the next experiment is HepG2 cells. The experiment is described as follows: HepG2 cytotoxicity assay (Cell Titer Glo 2.0). The settings on record: 72 h. It is filed as cell-based, Homo sapiens.
For experiment [5], the system named is adult S. mansoni. The experiment is described as follows: Single-concentration (10 μM) treatment of adult worms, attachment and morphology. As to conditions: in vitro culture. The format is cell-based, Schistosoma mansoni. The method, then:
as §1, §5
Observations on movement and morphology were also recorded. A negative control (0.1% DMSO) and positive control (PZQ; 10 µM in 0.1% DMSO) were included in each experiment, and each experiment was repeated in triplicate for validation. […]

The next experiment addresses T1, H. sapiens p97 (P55072) (Homo sapiens, UniProt P55072).
T1 construct: purified recombinant full-length (1-806aa) H; 6xHis (N); made in house; host or cells: E. coli BL21 (DE3)
The experiment in a line: Kinase-Glo ATP consumption assay, recombinant H. sapiens p97. It is filed as biochemical. As to conditions: recombinant Hsp97, Kinase-Glo, 100 μM to 1 nM; NA = no notable effect on the enzyme at tested concentrations; >100 = IC50 predicted above 100 μM or maximal inhibition not achieved.

Read-outs that look alike come from different tables or passages of the source.

S. mansoni p97 (Smp_018240), sequence (G4M0P7 entry or part of it): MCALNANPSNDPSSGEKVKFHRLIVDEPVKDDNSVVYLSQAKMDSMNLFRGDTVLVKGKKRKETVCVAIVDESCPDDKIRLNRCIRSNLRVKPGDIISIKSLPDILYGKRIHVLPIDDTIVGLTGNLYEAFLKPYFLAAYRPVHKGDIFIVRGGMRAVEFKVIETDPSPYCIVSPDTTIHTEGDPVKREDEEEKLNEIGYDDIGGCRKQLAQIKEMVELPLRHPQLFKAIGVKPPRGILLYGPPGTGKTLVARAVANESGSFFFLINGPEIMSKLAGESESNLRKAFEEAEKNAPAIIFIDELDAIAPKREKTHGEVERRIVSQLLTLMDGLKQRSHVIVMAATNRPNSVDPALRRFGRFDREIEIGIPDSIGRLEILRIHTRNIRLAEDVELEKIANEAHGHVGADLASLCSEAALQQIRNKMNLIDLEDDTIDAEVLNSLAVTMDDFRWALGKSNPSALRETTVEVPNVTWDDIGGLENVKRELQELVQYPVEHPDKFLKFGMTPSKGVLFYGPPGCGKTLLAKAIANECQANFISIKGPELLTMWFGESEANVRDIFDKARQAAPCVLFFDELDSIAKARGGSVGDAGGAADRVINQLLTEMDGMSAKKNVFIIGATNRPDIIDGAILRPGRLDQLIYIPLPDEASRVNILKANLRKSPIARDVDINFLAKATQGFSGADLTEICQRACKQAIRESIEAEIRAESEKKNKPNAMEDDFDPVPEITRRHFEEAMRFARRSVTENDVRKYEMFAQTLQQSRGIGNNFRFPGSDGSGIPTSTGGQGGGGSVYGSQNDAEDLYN
T1 sequence (P55072 whole entry): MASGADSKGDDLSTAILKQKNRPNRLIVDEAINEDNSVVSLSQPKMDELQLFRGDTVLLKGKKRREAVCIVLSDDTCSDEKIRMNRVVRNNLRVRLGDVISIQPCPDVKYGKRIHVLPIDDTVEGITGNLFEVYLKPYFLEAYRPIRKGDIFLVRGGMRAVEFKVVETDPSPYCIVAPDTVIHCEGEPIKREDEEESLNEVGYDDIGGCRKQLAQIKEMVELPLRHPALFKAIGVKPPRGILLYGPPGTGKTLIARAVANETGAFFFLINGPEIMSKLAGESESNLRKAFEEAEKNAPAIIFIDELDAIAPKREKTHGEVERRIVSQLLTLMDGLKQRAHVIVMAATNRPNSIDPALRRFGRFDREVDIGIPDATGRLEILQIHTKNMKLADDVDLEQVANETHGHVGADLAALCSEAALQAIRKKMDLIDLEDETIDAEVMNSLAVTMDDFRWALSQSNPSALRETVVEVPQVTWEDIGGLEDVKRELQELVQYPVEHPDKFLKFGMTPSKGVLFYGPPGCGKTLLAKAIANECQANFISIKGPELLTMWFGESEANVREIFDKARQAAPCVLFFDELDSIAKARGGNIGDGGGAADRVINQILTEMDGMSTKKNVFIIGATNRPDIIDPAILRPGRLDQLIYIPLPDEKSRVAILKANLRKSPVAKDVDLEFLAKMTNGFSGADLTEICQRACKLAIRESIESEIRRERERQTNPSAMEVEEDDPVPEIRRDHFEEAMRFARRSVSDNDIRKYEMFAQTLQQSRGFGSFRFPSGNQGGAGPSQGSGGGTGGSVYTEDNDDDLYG

For the compound `Cc1cc(OCc2nnc(SC3CCCC3)n2-c2cccnc2)ccc1-c1ccc(S(C)(=O)=O)cc1` [NMS-873], the “concentration leading to parasite death in vitro” value in the experiment with adult S. mansoni [1] is recorded as “submicromolar concentrations”. Moreover, the 50% inhibitory concentration (IC50) in experiment [2] amounted to 230 ± 75 nM. Moreover, the “accumulation of K48 polyubiquitinated proteins by western blot” value (shortened to “accumulation”) in experiment [3] is “accumulation of proteins targeted for proteasome-mediated degradation”.

Regarding AGI-41998, in the experiment with adult S. mansoni [4] (adult worms in vitro, tested 50 μM to 10 nM, readout attachment to culture substrate, read-out: EC50 of commercial inhibitors of human orthologs on adult parasites), the EC50 turned out to be 0.71 µM.

Turning to `Cc1cc2c(C(N)=O)cccc2n1-c1nc2c(c(NCc3ccccc3)n1)COCC2` [CB-5083], it took 310 nM to inhibit growth in the experiment with HepG2 cells (50% growth inhibition normalized to time = 0) by half (GI50). In the experiment with HepG2 cells (50% growth inhibition relative to control), it took 410 nM to reach half-maximal inhibition (IC50). The “concentration leading to parasite death in vitro” value in the experiment on adult S. mansoni [1] was “submicromolar concentrations”. Moreover, the “accumulation” value in experiment [3] is “accumulation of proteins targeted for proteasome-mediated degradation”. Further, in the experiment on adult S. mansoni [4] (fraction of worms attached after 72 h drug treatment, refreshed every 24 h, kept until D5, 50 μM - 10 nM, read-out: S. mansoni EC50 (μM) on adult parasites), the concentration for a half-maximal effect (EC50) worked out at 0.36 µM.

For AG-270, the EC50 in the experiment with adult S. mansoni [4] (read-out: EC50 of commercial inhibitors of human orthologs on adult parasites) was 0.18 µM.

Turning to `O=C(C#Cc1ccncc1)Nc1ccc2oc(-c3ccccn3)nc2c1` [Compound 739], the “Fold Selectivity (parasite enzyme over human enzyme)” value in experiment [2] (H. sapiens p97 IC50 versus S. mansoni p97 IC50) is 2.1 fold. The figures for the IC50 (in experiment [2]; on H. sapiens p97 (P55072)) were 150 nM and 320 ± 26 nM, respectively. Further, the “phenotype of adult worms after treatment” value in the experiment with adult S. mansoni [5] is on record as “death of the parasites”. For the same compound, in experiment [3], the “accumulation” value was “on-target activity by western blot”.
